According to patent US4000310A, “Pharmaceutical compositions containing 6-methyl-3,4-diphenyl-3,4,5,6-tetrahydro-2-pyrone or derivatives thereof” (Union Chimique Continentale-U.C.C, priority 1974, dated 1976):

Assays:
monoamine oxidase = experiment: Monoamine oxidase inhibition (tryptamine test); type: in vivo, rat (male, Wistar Af stock); conditions: rat, 64 mg/kg i.p.; tryptamine 3 mg/kg i.v.
Procedure: (§1) All the experiments described below were carried out using male rats weighing from 170 to 220 g (Wistar Af stock) and male mice weighing from 18 to 23 g (Swiss NMRI stock).
The dose of tryptamine given was insufficient to induce convulsions (3 mg/kg by intravenous injection).

rat [1] = experiment: Apomorphine stereotypy test; type: in vivo, rat (male, Wistar Af stock); conditions: rat, 32, 64 or 128 mg/kg oral 60 min before apomorphine 0.5 mg/kg s.c.
Procedure: as §1

mouse [2] = experiment: Hot-plate test on the mouse; type: in vivo, mouse (male, Swiss NMRI stock)
Procedure: as §1
This test was applied to measure the time taken or animals to react to a painful stimulus. 12 animals were used per point. 15 Minutes after oral administration of MDTP (64 mg/kg) the time taken for mice exposed to the hot-plate to react (by licking their rear paws) was 5.9 seconds, whereas the time taken by the control group was 9.5 seconds (difference significant at the threshold of 0.01).
On the other hand, the effects on this test of an analgesic dose of morphine was not changed -- either by increasing or reducing them -- by MDTP at the same dose.

rat [3] = experiment: Amphetamine stereotypy test; type: in vivo, rat (male, Wistar Af stock); conditions: rat, 32, 64 or 128 mg/kg oral 60 min before amphetamine 2 mg/kg i.p.
Procedure: as §1

rats [4] = experiment: Test of anticataleptic action (prochlorperazine catalepsy); type: in vivo, rat (male, Wistar Af stock); conditions: 16 or 64 mg/kg i.p. or oral, prochlorperazine 8 mg/kg i.p., homolateral paws, Buddha or elevator test
Procedure: as §1

mouse [5] = experiment: Observation of the animals, mouse; type: in vivo, mouse (male, Swiss NMRI stock)
Procedure: as §1
(§2) All the experiments took place in a laboratory with a constant temperature (22° ± 1° C).
(§3) All the experiments were carried out blind (without the experimenter knowing, at the time of the tests, which animals had received the substance presumed active).
(§4) Unless otherwise stated, 10 animals were always used per point.

animals [6] = experiment: Test with the board containing holes; type: in vivo
Procedure: The method and apparatus described by BOISSIER and SIMON (Physiol. Behav. 1967, 2, 444-448) were used. During these experiments 15 animals were used per batch (except that 30 were used for the control group and 30 for the dose of 64 mg/kg).

mice [7] = experiment: Test for antireserpine action, mice; type: in vivo, mouse (male, Swiss NMRI stock); conditions: mice, 8, 16, 32 and 64 mg/kg oral; reserpine 2.5 mg/kg i.p. 4 hours before
Procedure: as §1

animals [8] = experiment: animal or person; type: in vivo, rat and mouse
Procedure: an increase in the activity and alertness of animals without abnormal behaviour and particularly stereotyped movements ever appearing. Increased activity and alertness were found in both the rat and the mouse by observing the animals, measuring their motor activity and measuring their exploration of a board containing holes and the shortening of the reaction time of mice on a hot-plate. The increase is marked (according to the tests) from doses of 16 to 32 mg/kg given orally; it takes place rapidly after administration and lasts about 2 hours. These doses are far from the toxic level (ratio LD50/ED 50 approximately 20/1 in the mouse and over 10/1 in the rat);

rat [9] = experiment: Acute toxicity in the rat; type: in vivo
Procedure: as §1, §2, §3, §4
(§5) In the rat, with either oral or intraperitoneal administration, the LD50 of 6-methyl 3,4-diphenyl-3,4,5,6-tetrahydro 2-pyrone was over 300 mg/kg.

[10] = Acute toxicity in the rat; type: in vivo; conditions: in vivo
Procedure: as §1, §2, §3, §4, §5

rat [11] = experiment: Avoidance conditioning in the rat (shuttle-box); type: in vivo, rat (male, Wistar Af stock); conditions: 64 mg/kg oral, 8 animals
Procedure: as §1
The avoidance conditioning was studied in the rat placed in a shuttle-box (with 2 compartments) (of. BOISSIER and SIMON: Therapie 1968, 23, 1267-1276).

rats [12] = experiment: Test for antireserpine action, rats; type: in vivo, rat (male, Wistar Af stock); conditions: rats, 8, 16, 32 and 64 mg/kg oral; reserpine 2.5 mg/kg i.p. 4 hours before
Procedure: as §1

rat [13] = experiment: Observation of the animals, rat; type: in vivo, rat (male, Wistar Af stock)
Procedure: as §1, §2, §3, §4

mouse [14] = experiment: Conditioned inhibition, 4 plate test, mouse; type: in vivo, mouse (male, Swiss NMRI stock)
Procedure: as §1
A simple conditioned inhibition test was used, the 4 plate test (ARON an Coll, Neuropharmacology 1971, 10, 459-470).

mice [15] = experiment: Test for antioxotremorine action; type: in vivo, mouse (male, Swiss NMRI stock); conditions: mice, 8, 16, 32 or 64 mg/kg i.p. or oral; oxotremorine 0.5 mg/kg i.p.
Procedure: as §1
In mice which had been dosed intraperitoneally or orally with 8, 16, 32 or 64 mg/kg of MDTP, the effects of oxotremorine (0.5 mg/kg given intraperitoneally) were unchanged, as far as hypothermia, tremors, tears, hypersalivation and defecation were concerned.

rat [16] = experiment: Effects of barbiturate hypnotics, rat; type: in vivo, rat (male, Wistar Af stock); conditions: rat, 16, 32 or 64 mg/kg oral, with pentabarbitone or barbitone sodium
Procedure: as §1

mouse [17] = experiment: Interaction with electric shocks; type: in vivo, mouse (male, Swiss NMRI stock); conditions: mouse, 16, 32, 64 or 128 mg/kg oral 60 min before electric shock
Procedure: as §1

[18] = doses very close to lethal level
[19] = oral or intraperitoneal, from 16 mg/kg, below toxic level
[20] = oral or intraperitoneal, read-out: dose from which slight excitation is observed
[21] = 16 mg/kg orally 60 min before test
[22] = 32 mg/kg orally 60 min before test
[23] = 64 mg/kg orally 60 min before test
[24] = 128 mg/kg orally 60 min before test

## CC1CC(c2ccccc2)C(c2ccccc2)C(=O)O1 (centres unmarked) [MDTP, 6-methyl-3,4-diphenyl-3,4,5,6-tetrahydro-2-pyrone]
Monoamine oxidase
  effects of tryptamine (inhibiting effect on monoamine oxidase): did not increase the effects of tryptamine
Rat [1]
  change in apomorphine-induced stereotyped movements: did not bring about any change in the sterotyped movements
Mouse [2]; 64 mg/kg oral, 15 min after, control 9.5 seconds, significant at 0.01
  time taken to react (licking rear paws) on hot-plate: 5.9 s
Mouse [2]; MDTP at the same dose
  change in effects of an analgesic dose of morphine on hot-plate test: not changed
Rat [3]
  change in amphetamine-induced stereotyped movements: did not bring about any change in the stereotyped movements
Rats [4]
  change in cataleptic state: did not produce any change in the cataleptic state
Mouse [5]; doses below toxic level
  diameter of the pupils, rectal temperature: no change in diameter of the pupils or the rectal temperature
  motor incoordination, abnormal or stereotyped movements: not accompanied by motor incoordination or by abnormal or stereotyped movements
Mouse [5]; [18]
  hyperthermia: moderate hyperthermia
Mouse [5]; in vivo
  toxic signs: tremors, hyperreactivity to very intense stimuli, interaggressiveness and convulsive phenomena with the rear paws stretched
Mouse [5]; [19]
  excitation on observation: slight excitation is observed with increased reaction to touching or to sound stimuli
Mouse [5]; [20]
  minimal effective dose: 16 mg/kg
Animals [6]; [21]
  displacements made in 5 min: 98 % of control group
  holes explored in 5 min: 120 % of control group
Animals [6]; [22]
  displacements made in 5 min: 115 % of control group
  holes explored in 5 min: 131 % of control group
Animals [6]; [23]
  displacements made in 5 min: 161 % of control group
  holes explored in 5 min: 140 % of control group
Animals [6]; [24]
  displacements made in 5 min: 159 % of control group
  holes explored in 5 min: 141 % of control group
Animals [6]; oral, read-out: dose from which increase in number of holes explored becomes significant
  minimal effective dose: 32 mg/kg
Mice [7]
  change in reserpine-induced hypothermia or palpebral ptosis: did not produce any change in the hypothermia or palpebral ptosis
Animals [8]; in vivo
  signs of sympathetic excitation, sleep preventing action: does not give rise to any signs of sympathetic excitation, any sleep preventing action
  sleep inhibiting effect: does not have any sleep inhibiting effect
Animals [8]; oral, rat and mouse
  duration of increase in activity and alertness: about 2 hours
Animals [8]; po, read-out: doses from which increase in activity and alertness is marked
  minimal effective dose: 16 to 32 mg/kg
Rat [9]
  ratio LD50/ED 50: over 10/1
[10]; ip, intraperitoneal
  LD50: > 300 mg/kg
[10]; oral
  LD50: > 300 mg/kg
Rat [11]
  change in avoidance conditioning: did not produce any change in conditioning
Rats [12]
  change in reserpine-induced hypothermia or palpebral ptosis: did not produce any change in the hypothermia or palpebral ptosis
Rat [13]
  sexual behaviour: An increase in sexual behaviour
Rat [13]; doses below toxic level
  diameter of the pupils, rectal temperature: no change in diameter of the pupils or the rectal temperature
  motor incoordination, abnormal or stereotyped movements: not accompanied by motor incoordination or by abnormal or stereotyped movements
Rat [13]; [18]
  hyperthermia: moderate hyperthermia
Rat [13]; in vivo
  toxic signs: tremors, hyperreactivity to very intense stimuli, interaggressiveness and convulsive phenomena with the rear paws stretched
Rat [13]; [19]
  excitation on observation: slight excitation is observed with increased reaction to touching or to sound stimuli
Rat [13]; [20]
  minimal effective dose: 16 mg/kg
Mouse [14]; mouse, 4, 8, 16, 32, 64 and 128 mg/kg
  change in conditioned inhibition: no change was observed in conditioned inhibition
Mouse [14]; mouse, 4 to 128 mg/kg
  performance of the animals in 4 plate test: a slight increase in the performance of the animals
Mice [15]
  effects of oxotremorine (hypothermia, tremors, tears, hypersalivation, defecation): unchanged
Rat [16]
  change in time to fall asleep and sleeping period: did not produce any change in the time taken to fall asleep or in the sleeping period
Mouse [17]
  duration or form of convulsive attacks: did not affect either the duration or the form of the convulsive attacks
  mortality after the attack: did not lead to any increase in mortality after the attack
